Laboratory results taken from ChEMBL document CHEMBL1909046, “DrugMatrix in vitro pharmacology data”.

Columns and labels:
[1] = target: T1, Alpha-2A adrenergic receptor (Homo sapiens, UniProt P08913); format: cell membranes, Sf9, Membrane; settings: sf9; note: in other assays of this panel Not Active means under 50% inhibition at 10 µM
T1 sequence (P08913 whole entry): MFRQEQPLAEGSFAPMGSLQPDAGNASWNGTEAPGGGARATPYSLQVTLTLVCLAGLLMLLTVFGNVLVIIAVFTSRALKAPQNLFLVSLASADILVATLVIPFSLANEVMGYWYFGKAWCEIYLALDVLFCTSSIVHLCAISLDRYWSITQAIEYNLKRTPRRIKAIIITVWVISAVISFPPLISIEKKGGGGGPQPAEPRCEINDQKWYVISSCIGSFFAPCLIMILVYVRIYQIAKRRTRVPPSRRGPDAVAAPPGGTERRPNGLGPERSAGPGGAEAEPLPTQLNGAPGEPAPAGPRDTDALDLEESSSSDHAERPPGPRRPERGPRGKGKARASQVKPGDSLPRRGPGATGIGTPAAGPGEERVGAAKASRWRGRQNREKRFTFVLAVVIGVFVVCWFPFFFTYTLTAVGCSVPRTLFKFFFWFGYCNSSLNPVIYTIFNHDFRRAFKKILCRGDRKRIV

Glycine receptor = Glycine receptor (Rattus norvegicus, UniProt P22771+P24524+P07727+P20781); format: cell membranes, Wistar, Spinal cord, Membrane; note: in other assays of this panel Not Active means under 50% inhibition at 10 µM
Progesterone receptor = target: T2, Progesterone receptor (Bos taurus, UniProt Q690N0); test: DRUGMATRIX: Progesterone radioligand binding (ligand: [3H] R-5020); format: tissue-based, Uterus; settings: Not Active = under 50% inhibition at 10 µM
T2 sequence (Q690N0 whole entry): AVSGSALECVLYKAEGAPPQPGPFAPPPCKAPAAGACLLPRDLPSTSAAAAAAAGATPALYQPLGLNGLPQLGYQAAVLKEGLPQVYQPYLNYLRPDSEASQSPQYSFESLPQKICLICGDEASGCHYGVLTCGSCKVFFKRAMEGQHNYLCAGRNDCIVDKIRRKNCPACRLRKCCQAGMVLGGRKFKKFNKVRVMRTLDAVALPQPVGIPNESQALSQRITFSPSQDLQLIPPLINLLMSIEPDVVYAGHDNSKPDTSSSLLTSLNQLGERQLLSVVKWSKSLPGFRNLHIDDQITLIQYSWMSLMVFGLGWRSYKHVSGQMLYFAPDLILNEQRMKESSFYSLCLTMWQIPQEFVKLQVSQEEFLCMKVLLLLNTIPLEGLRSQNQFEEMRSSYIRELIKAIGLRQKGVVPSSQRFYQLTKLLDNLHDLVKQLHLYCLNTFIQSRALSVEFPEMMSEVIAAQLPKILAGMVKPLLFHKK

[2] = target: Tyrosine-protein kinase Lck (Homo sapiens, UniProt P06239); test: DRUGMATRIX: Protein Tyrosine Kinase, LCK enzyme inhibition (substrate: Poly(Glu:Tyr)); format: cell-based, Insect cells; settings: insect cells, Not Active = under 50% inhibition at 10 µM
[3] = DRUGMATRIX: Purinergic P2X radioligand binding (ligand: [3H] alpha, beta-Methylene-ATP); format: cell membranes, Oryctolagus cuniculus, New Zealand albino, Urinary bladder, Membrane; settings: Not Active = under 50% inhibition at 10 µM

Sequence of Tyrosine-protein kinase Lck (P06239 whole entry): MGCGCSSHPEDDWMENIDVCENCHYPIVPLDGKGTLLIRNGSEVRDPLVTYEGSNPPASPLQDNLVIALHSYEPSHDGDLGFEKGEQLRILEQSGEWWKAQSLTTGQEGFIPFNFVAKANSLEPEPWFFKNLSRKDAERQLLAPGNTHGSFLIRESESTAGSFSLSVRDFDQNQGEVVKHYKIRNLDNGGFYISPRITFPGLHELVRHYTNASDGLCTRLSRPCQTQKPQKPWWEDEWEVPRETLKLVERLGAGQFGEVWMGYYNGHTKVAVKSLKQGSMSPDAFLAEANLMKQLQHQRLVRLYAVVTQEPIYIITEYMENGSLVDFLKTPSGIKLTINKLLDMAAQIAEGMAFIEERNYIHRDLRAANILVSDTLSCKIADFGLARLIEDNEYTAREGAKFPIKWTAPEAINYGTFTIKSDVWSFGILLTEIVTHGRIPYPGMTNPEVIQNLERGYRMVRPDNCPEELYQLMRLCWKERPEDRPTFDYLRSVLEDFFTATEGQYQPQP

Sequence	IC50 [1]	Ki [1]	IC50 (Glycine receptor)	Ki (Glycine receptor)	IC50 (Progesterone receptor)	Ki (Progesterone receptor)	IC50 [2]	Ki [2]	IC50 [3]	Ki [3]	IC50 ([2]; read-out: IC50) [nM]
GADOPENTETATE DIMEGLUMINE	Not Active	Not Active	Not Active	Not Active	Not Active	Not Active	Not Active	Not Active	Not Active	Not Active	
GENTAMICIN	Not Active	Not Active	Not Active	Not Active	Not Active	Not Active	Not Active	Not Active	Not Active	Not Active	
GRAMICIDIN	Not Active	Not Active	Not Active	Not Active	Not Active	Not Active			Not Active	Not Active	1090
NYSTATIN	Not Active	Not Active	Not Active	Not Active	Not Active	Not Active	Not Active	Not Active	Not Active	Not Active	
